Measurements from patent publication US11021444B2, “Antiviral compounds” (priority 2013, dated 2021).
Like-named read-outs stand apart in the source and are kept apart here.

Columns and labels:
recombinant RSV complex = recombinant RSV complex (Human respiratory syncytial virus A, UniProt P28887); assay: RSV Polymerase Inhibition Assay; assay type: biochemical
Summary of the method: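 10 nM recombinant RSV polymerase complex in Tris-HCl pH 7.5, 6 mM MgCl2 with RNA oligonucleotide template and radionucleotides, incubated 2 h at 30 °C with increasing inhibitor concentrations. Reaction stopped with EDTA; radiolabeled RNA product counted by scintillation.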

[1] = Cytotoxicity Determination (CCK-8, without addition of virus); assay type: cell-based; conditions: human, 50% cytotoxicity concentration (CC50)
Summary of the method: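 HEp-2 cells were seeded at 1,500 cells/well one day before compound addition. Compounds were tested without virus in duplicate over 7 points from 100 μM in 1/2 steps, with 1% final DMSO, 5 days at 37 °C, 5% CO2. Viability was read by CCK-8 after 3-4 hours.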

[2] = tested on: Respiratory Syncytial Virus (RSV) long strain; assay: microbe, parasite or virus in culture; assay type: cell-based; conditions: human respiratory syncytial virus, Tables A and B list compounds by EC50 band
Summary of the method: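 HEp-2 cells infected with 100 TCID50 virus per well, compounds in duplicate, 9-point 1/3 dilutions from 100 μM or 1 μM, 1% DMSO. After 5 days at 37 °C, cell viability (CPE protection) read by CCK-8 absorbance at 450 nm, 630 nm background.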

[3] = HEp-2, 120 h, read-out: 50% effective concentration (EC50), HEp-2 cells infected with RSV long strain, 5 days, CCK-8 readout
[4] = 120 h, read-out: 50% effective concentration (EC50), HEp-2 cells infected with RSV long strain, 5 days, CCK-8 readout

Sequence of recombinant RSV complex (P28887 whole entry): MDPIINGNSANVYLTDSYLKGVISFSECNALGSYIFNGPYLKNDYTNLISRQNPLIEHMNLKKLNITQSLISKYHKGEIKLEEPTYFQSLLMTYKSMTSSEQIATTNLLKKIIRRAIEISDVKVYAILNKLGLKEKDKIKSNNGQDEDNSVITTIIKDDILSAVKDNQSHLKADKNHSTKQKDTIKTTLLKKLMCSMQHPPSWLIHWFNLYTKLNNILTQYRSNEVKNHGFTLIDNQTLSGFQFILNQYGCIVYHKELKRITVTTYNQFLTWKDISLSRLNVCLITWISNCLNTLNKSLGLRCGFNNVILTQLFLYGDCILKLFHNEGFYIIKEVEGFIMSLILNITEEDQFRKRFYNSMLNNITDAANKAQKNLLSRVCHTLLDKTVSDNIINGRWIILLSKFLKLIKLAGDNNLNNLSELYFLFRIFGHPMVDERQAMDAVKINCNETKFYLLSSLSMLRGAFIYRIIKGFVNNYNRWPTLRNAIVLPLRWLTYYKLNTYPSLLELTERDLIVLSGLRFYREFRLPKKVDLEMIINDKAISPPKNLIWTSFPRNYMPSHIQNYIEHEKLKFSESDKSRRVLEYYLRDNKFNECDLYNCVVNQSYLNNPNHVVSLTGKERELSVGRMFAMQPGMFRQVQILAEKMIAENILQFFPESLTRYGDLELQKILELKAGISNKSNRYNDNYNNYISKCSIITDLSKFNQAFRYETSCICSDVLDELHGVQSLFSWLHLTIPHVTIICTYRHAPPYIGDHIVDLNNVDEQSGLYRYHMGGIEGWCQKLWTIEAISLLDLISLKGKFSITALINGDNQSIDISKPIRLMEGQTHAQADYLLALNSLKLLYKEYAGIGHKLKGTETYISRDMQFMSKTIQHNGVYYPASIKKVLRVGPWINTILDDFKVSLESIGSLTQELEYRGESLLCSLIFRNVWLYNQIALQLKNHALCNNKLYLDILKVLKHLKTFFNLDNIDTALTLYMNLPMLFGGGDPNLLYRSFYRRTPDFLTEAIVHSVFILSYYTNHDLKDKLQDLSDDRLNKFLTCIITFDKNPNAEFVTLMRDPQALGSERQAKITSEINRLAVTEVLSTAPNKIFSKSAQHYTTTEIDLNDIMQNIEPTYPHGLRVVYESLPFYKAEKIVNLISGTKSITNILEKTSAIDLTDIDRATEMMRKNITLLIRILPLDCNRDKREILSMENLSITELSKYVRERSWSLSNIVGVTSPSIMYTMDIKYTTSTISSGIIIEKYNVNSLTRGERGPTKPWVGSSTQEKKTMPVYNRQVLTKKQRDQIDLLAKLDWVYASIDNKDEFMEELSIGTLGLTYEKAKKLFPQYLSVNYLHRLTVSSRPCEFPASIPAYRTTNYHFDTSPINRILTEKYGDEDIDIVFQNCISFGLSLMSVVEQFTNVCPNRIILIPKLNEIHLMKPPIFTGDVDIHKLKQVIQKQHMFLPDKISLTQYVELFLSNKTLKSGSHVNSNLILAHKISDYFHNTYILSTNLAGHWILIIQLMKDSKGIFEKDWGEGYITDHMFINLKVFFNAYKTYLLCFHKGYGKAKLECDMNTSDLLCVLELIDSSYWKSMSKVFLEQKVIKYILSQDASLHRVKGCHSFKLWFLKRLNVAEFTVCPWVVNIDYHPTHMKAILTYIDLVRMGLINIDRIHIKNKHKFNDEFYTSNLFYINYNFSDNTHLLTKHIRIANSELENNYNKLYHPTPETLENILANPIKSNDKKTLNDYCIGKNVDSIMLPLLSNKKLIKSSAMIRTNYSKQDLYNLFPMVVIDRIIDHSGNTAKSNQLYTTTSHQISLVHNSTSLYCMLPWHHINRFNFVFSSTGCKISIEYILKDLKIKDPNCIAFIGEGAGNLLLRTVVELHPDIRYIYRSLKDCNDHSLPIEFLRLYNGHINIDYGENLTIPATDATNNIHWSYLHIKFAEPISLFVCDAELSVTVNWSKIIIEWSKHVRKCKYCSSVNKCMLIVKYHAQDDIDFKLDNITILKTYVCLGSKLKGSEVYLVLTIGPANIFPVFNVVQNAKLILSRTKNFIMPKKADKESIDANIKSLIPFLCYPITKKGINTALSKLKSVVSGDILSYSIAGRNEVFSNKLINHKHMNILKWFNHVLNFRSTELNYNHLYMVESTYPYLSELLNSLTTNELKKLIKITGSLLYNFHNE
Sequence of recombinant RSV complex (P03421 whole entry, further chain): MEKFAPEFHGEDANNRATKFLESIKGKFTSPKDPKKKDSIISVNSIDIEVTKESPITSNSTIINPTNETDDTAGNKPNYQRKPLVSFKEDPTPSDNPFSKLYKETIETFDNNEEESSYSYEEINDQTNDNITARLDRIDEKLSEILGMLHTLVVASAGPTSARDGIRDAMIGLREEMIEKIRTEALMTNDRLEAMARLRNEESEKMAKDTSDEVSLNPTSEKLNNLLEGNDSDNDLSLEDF

| Structure (SMILES) | IC50 (recombinant RSV complex) [µM] | CC50 at 5 days [1] [µM] | EC50 [2, 3] [µM] | EC50 [2, 4] [µM] |
| --- | --- | --- | --- | --- |
| COc1cc(C(=O)NCC(N)(CF)c2ccc(OC)c(-c3ccc(F)c(Cl)c3)n2)ccc1OC1CC1 (stereo not drawn) [Compound 518] | < 1 | 10 to 100 | < 1 | – |
| COCC(C)(NC(C)=O)c1cc(-c2ccc(F)c(Cl)c2)nc(C(O)(CNC(=O)c2ccc(OC3CC3)c(OC)c2)C(F)(F)F)c1 (stereo not drawn) [Compound 537] | < 1 | 10 to 100 | < 1 | – |
| COCC(C)(N)c1cc(-c2ccc(F)c(Cl)c2)nc(C(O)(CNC(=O)c2ccc(OCCO)c(OC)c2)C(F)(F)F)c1 (stereo not drawn) [Compound 541] | < 1 | 10 to 100 | < 1 | – |
| COc1cc(C(=O)NC[C@@](O)(c2cc(C(C)(C)N)cc(-c3ccc(F)c(Cl)c3)n2)C(F)(F)F)ccc1OCCO [Compound 549] | < 1 | 10 to 100 | 1 to 50 | – |
| COc1cc(C(=O)NC[C@@](O)(c2cc(C(C)(C)N)cc(-c3ccc(F)cc3)n2)C(F)(F)F)ccc1OCCO [Compound 553] | < 1 | 10 to 100 | < 1 | – |
| COc1cc(C(=O)NCC(O)(c2cc(C(C)(C)N)cc(-c3ccc(I)nc3)n2)C(F)(F)F)ccc1OC1CC1 (stereo not drawn) [Compound 557] | < 1 | 10 to 100 | < 1 | – |
| COc1cc(C(=O)NCC(O)(c2cc3c(c(-c4ccc(F)cc4)n2)OCC3(N)C(C)C)C(F)(F)F)ccc1OCCO (stereo not drawn) [Compound 565] | < 1 | 10 to 100 | < 1 | – |
| COc1cc(C(=O)NCC(O)(c2cc3c(c(-c4ccc(F)cc4)n2)OCC3(N)C(C)C)C(F)(F)F)ccc1OC[C@@H](C)O (stereo partly drawn) [Compound 568] | < 1 | 10 to 100 | < 1 | – |
| CC(C)(N)c1cc(-c2ccc(F)cc2)nc(C(O)(CNC(=O)c2ccc3c(c2)NC(=O)C3)C(F)(F)F)c1 (stereo not drawn) [Compound 570] | < 1 | 10 to 100 | – | < 1 |
| COc1cc(C(=O)NCC(O)(c2cc(C(C)(C)N)cc(-c3ccc(F)c(Cl)c3)n2)C(F)(F)F)ccc1NC(C)=O (stereo not drawn) [Compound 592] | < 10 | 10 to 100 | < 1 | – |
| COc1cc(C(=O)NCC(O)(c2cc(C(C)(C)N)cc(-c3ccc(F)c(Cl)c3)n2)C(F)(F)F)ccc1NS(C)(=O)=O (stereo not drawn) [Compound 593] | < 1 | 10 to 100 | < 1 | – |
| COc1cc(C(=O)NCC(O)(c2cc3c(c(-c4ccc(F)cc4)n2)OCC3(C)N)C(F)(F)F)ccc1OC1CC(O)C1 (stereo not drawn) [Compound 597] | < 10 | 10 to 100 | < 1 | – |
| COc1cc(C(=O)NCC(O)(c2cc(C(C)(C)N)cc(-c3ccc(F)cc3)n2)C(F)(F)F)ccc1-c1ccncc1 (stereo not drawn) [Compound 599] | < 1 | 10 to 100 | < 1 | – |
| COc1cc(C(=O)NC[C@@](O)(c2cc3c(c(-c4ccc(C#N)cc4)n2)OC[C@]3(C)N)C(F)(F)F)ccc1OCCO [Compound 604b] | < 10 | > 100 | 1 to 50 | – |
| Cc1nc(C(=O)NCC(O)(c2cc(C(C)(C)N)cc(-c3ccc(F)cc3)n2)C(F)(F)F)co1 (stereo not drawn) [Compound 607] | < 10 | 10 to 100 | 1 to 50 | – |
| Cc1ncc(C(=O)NCC(O)(c2cc(C(C)(C)N)cc(-c3ccc(F)cc3)n2)C(F)(F)F)o1 (stereo not drawn) [Compound 608] | < 10 | > 100 | 1 to 50 | – |
| Cc1ncc(C(=O)NCC(O)(c2cc(C(C)(C)N)cc(-c3ccc(F)cc3)n2)C(F)(F)F)[nH]1 (stereo not drawn) [Compound 609] | < 10 | 10 to 100 | 1 to 50 | – |
| CC(C)(N)c1cc(-c2ccc(F)cc2)nc(C(O)(CNC(=O)c2ccc3oc(=O)[nH]c3c2)C(F)(F)F)c1 (stereo not drawn) [Compound 610] | < 1 | 10 to 100 | – | < 1 |
| COc1cc(C(=O)NCC(O)(c2ccc(OC)c(-c3ccc(F)cc3)n2)C(F)(F)F)ccc1OCCO (stereo not drawn) [Compound 619] | < 1 | 10 to 100 | < 1 | – |
| COc1cc(C(=O)NCC(O)(c2cc(C(C)(C)NC(C)=O)cc(-c3ccc(F)cc3)n2)C(F)(F)F)ccc1OC[C@@H](C)O (stereo partly drawn) [Compound 620] | < 1 | > 100 | – | < 1 |
| COc1cc(C(=O)NC[C@@](O)(c2cc3c(c(-c4ccc(F)cc4)n2)OC[C@]3(C)N)C(F)(F)F)ccc1OC[C@@H](C)O [Compound 629] | < 1 | 10 to 100 | < 1 | – |
| COc1cc(C(=O)NC[C@](O)(c2cc3c(c(-c4ccc(F)cc4)n2)OC[C@]3(C)N)C(F)(F)F)ccc1OC[C@@H](C)O [Compound 631] | < 1 | 10 to 100 | < 1 | – |
